# Laboratory results reported in EP4647073A1, “MURRAYA KOENIGII IN THE TREATMENT OF UPPER RESPIRATORY TRACT INFECTIONS” (Nutraceutical Technology Pharma Biotech S.r.l., priority 2024, dated 2025).
# Experiments:
# S. pyogenes (ATCC 19615) = experiment: Agar well diffusion method, antibacterial activity; type: cell-based; settings: Streptococcus pyogenes
# Procedure: The agar well diffusion method was used for the assessment of the antibacterial activity of M. koenigii leaves against S. pyogenes (ATCC 19615). Six DMSO extracts of M. koenigii leaves from different geographical origins were tested. Antibacterial assay was performed on M17 agar ([…] Abruzzi, Italy). An overnight anaerobic culture of S. pyogenes grown at 37°C, was diluted in order to obtain a suspension containing approximately 1×10^8 CFU/ml. Each agar plate was spread with the microbial suspension. Using a sterile agar gel puncher, equidistant wells were created and filled with 0.1 ml of each sample. The plates were allowed to stand for 30 minutes to allow pre-diffusion of the tested samples, and thereafter incubated at 37°C for 24 h under anaerobic conditions. After incubation, the diameter of any zone of inhibition surrounding each well was measured. Each experiment was performed in triplicates and the means were calculated. […] Louis, USA). Each standard was weighed separately, solubilized in methanol and diluted in DMSO. […] Antibacterial assay was performed on M17 agar ([…] Abruzzi, 25 Italy). An overnight anaerobic culture of S. pyogenes, grown at 37°C, was diluted approximately to obtain 1×10^8 CFU/ml and spread on M17 agar. Using a sterile agar gel puncher, equidistant wells were created and filled with 0.1 ml of each extraction solvent. The plate was allowed to stand for 30 minutes to allow pre-diffusion of the tested samples, and thereafter incubated at 37°C. The zone of inhibition around each well was measured in mm.
# S. pyogenes = experiment: TTC assay (broth microdilution) for MIC and MBC determination; type: cell-based, Streptococcus pyogenes; settings: for inhibition at 250 µg/mL (stock) / OD 480 nm (24 h) / OD 600 nm (24 h) / log10 (CFU/ml): duplicate wells
# Procedure: Louis, MO) as colorimetric indicator. In the presence of living bacteria, the colourless TTC is reduced to red formazan. […] Two different stock solutions of M. koenigii leaves were prepared in DMSO at concentrations of 100 mg/ml (1:10) and 20 mg/ml (1:50). Two-fold dilution method was performed in order to obtain a concentration range of 0.04 mg/ml to 10 mg/ml for the 20 mg/ml stock solution and of 0.2 mg/ml to 50 mg/ml for the 100 mg/ml stock solution. An overnight anaerobic culture of S. pyogenes grown at 37°C was adjusted to a final concentration of 1x10^7 CFU/ml in M17 broth ([…] Abruzzi, Italy) and added to the microplate wells containing different concentrations of the extract, in order to obtain a final inoculum of approximately 1x10^6 CFU/well. The microplate was incubated at 37°C under anaerobic conditions for 24 h. […] To discriminate between bactericidal/bacteriostatic activity of the extract, 100 μl aliquots from each tested dilution were used to calculate the number of viable cells (CFU/ml) by plate count method and 10 μl aliquots from the same wells were streaked on M17 agar plates (Figure 3). […] TTC assay is depicted in Figure 4, where a picture of the microplate used for the TTC assay is reported. […] Table 2: Antibacterial activity of DMSO extract of M. koenigii leaves against S. pyogenes. All results are the mean of triplicates wells. […] Medium M17 (blank), positive control (S. pyogenes without M. koenigii), Ext. (Extract). A stock solution of amoxicillin (Sigma-Aldrich, St. Louis, USA) was prepared at a concentration of 0.25 mg/ml in DMSO. The antibacterial properties against S. pyogenes of the plant extract alone, amoxicillin alone and their combination were evaluated by TTC assay as mentioned above. For the experiment, the 20 mg/ml stock solution of M. koenigii leaves was used and a solution containing 0.25 mg/ml amoxicillin and 20 mg/ml extract was prepared.
# [1] = Release of carbazole alkaloids from the chewing gum of Example 5 during chewing (HPLC/DAD of chewed bolus); type: in vivo, healthy adult volunteers; settings: average of three chewers
# Procedure: The chromatographic separation was performed by an HPLC/DAD system series 1200 from Agilent (Agilent Technologies, Santa […], California, USA); the analytical column was a Kinetex C18 5um, 100A (150 mm x 3.00 mm i.d.) from Phenomenex (Phenomenex SRL, Bologna; Italy) equipped with a security guard column. […] The elution of the analytes was carried out with a gradient method: initial condition was 40% of ACN, then brought to 90% in 10 minutes and kept for 8 minutes. […] An aliquot of each solution was withdrawn in order to prepare a mix standard solution and a calibration curve from 0.5 ppm to 4.0 ppm in MeOH was created for the quantification of samples. […] Each chewed bolus of the resulting 4 chewing tests, was frozen overnight and then weighed, ground and added with MeOH. The supernatant was filtered and analysed by HPLC/DAD. In Table 4 below, the release results are reported, being focused on the main actives of M. koenigii. Table 4: […]
# [2] = Table 3, dilution 1:2 of stock (amoxicillin 0.25 mg/ml; mix 0.25 mg/ml amoxicillin and 20 mg/ml extract)
# [3] = Table 3, dilution 1:4 of stock (amoxicillin 0.25 mg/ml; mix 0.25 mg/ml amoxicillin and 20 mg/ml extract)
# [4] = Table 3, dilution 1:8 of stock (amoxicillin 0.25 mg/ml; mix 0.25 mg/ml amoxicillin and 20 mg/ml extract)
# [5] = Table 3, dilution 1:16 of stock (amoxicillin 0.25 mg/ml; mix 0.25 mg/ml amoxicillin and 20 mg/ml extract)
# [6] = Table 3, dilution 1:32 of stock (amoxicillin 0.25 mg/ml; mix 0.25 mg/ml amoxicillin and 20 mg/ml extract)
# [7] = Table 3, dilution 1:64 of stock (amoxicillin 0.25 mg/ml; mix 0.25 mg/ml amoxicillin and 20 mg/ml extract)
# [8] = Table 3, dilution 1:128 of stock (amoxicillin 0.25 mg/ml; mix 0.25 mg/ml amoxicillin and 20 mg/ml extract)
smiles,measurement,setting,value
COc1ccc2[nH]c3c4c(c(C)cc3c2c1)OC(C)(C)C=C4 [Koenimbine],zone of inhibition at 4 µg/mL,"S. pyogenes (ATCC 19615); ATCC19615, standard at 4 µg/ml, 0.1 ml per well, M17 agar, 37°C",~18 mm
"CC1(C)S[C@@H]2[C@H](NC(=O)[C@H](N)c3ccc(O)cc3)C(=O)N2[C@H]1C(=O)O [Amoxicillin, amoxicillin]",inhibition at 250 µg/mL (stock),"S. pyogenes; Streptococcus pyogenes, Table 3, dilution 1:2 of stock (amoxicillin 0.25 mg/ml; mix 0.25 mg/ml amoxicillin and 20 mg/ml extract)",100%
same,inhibition at 250 µg/mL (stock),"S. pyogenes; Streptococcus pyogenes, Table 3, dilution 1:4 of stock (amoxicillin 0.25 mg/ml; mix 0.25 mg/ml amoxicillin and 20 mg/ml extract)",100%
same,inhibition at 250 µg/mL (stock),"S. pyogenes; Streptococcus pyogenes, Table 3, dilution 1:8 of stock (amoxicillin 0.25 mg/ml; mix 0.25 mg/ml amoxicillin and 20 mg/ml extract)",100%
same,inhibition at 250 µg/mL (stock),"S. pyogenes; Streptococcus pyogenes, Table 3, dilution 1:16 of stock (amoxicillin 0.25 mg/ml; mix 0.25 mg/ml amoxicillin and 20 mg/ml extract)",48.6%
same,inhibition at 250 µg/mL (stock),"S. pyogenes; Streptococcus pyogenes, Table 3, dilution 1:32 of stock (amoxicillin 0.25 mg/ml; mix 0.25 mg/ml amoxicillin and 20 mg/ml extract)",40.6%
same,inhibition at 250 µg/mL (stock),"S. pyogenes; Streptococcus pyogenes, Table 3, dilution 1:64 of stock (amoxicillin 0.25 mg/ml; mix 0.25 mg/ml amoxicillin and 20 mg/ml extract)",41.5%
same,inhibition at 250 µg/mL (stock),"S. pyogenes; Streptococcus pyogenes, Table 3, dilution 1:128 of stock (amoxicillin 0.25 mg/ml; mix 0.25 mg/ml amoxicillin and 20 mg/ml extract)",42%
same,MIC,"S. pyogenes; Streptococcus pyogenes, M17 broth, 37°C, anaerobic, 24 h",16 µg/mL
same,MBC,"S. pyogenes; Streptococcus pyogenes, M17 broth, 37°C, anaerobic, 24 h, complete inhibition of growth",31 µg/mL
same,OD 480 nm (24 h),S. pyogenes; [2],0.003
same,OD 600 nm (24 h),S. pyogenes; [2],0.002
same,log10 (CFU/ml),S. pyogenes; [2],0.00 log10 (CFU/ml)
same,OD 480 nm (24 h),S. pyogenes; [3],0.001
same,OD 600 nm (24 h),S. pyogenes; [3],0.011
same,log10 (CFU/ml),S. pyogenes; [3],0.00 log10 (CFU/ml)
same,OD 480 nm (24 h),S. pyogenes; [4],0.005
same,OD 600 nm (24 h),S. pyogenes; [4],0.026
same,log10 (CFU/ml),S. pyogenes; [4],0.00 log10 (CFU/ml)
same,OD 480 nm (24 h),S. pyogenes; [5],0.057
same,OD 600 nm (24 h),S. pyogenes; [5],0.088
same,log10 (CFU/ml),S. pyogenes; [5],4.51 log10 (CFU/ml)
same,OD 480 nm (24 h),S. pyogenes; [6],0.098
same,OD 600 nm (24 h),S. pyogenes; [6],0.137
same,log10 (CFU/ml),S. pyogenes; [6],5.20 log10 (CFU/ml)
same,OD 480 nm (24 h),S. pyogenes; [7],0.120
same,OD 600 nm (24 h),S. pyogenes; [7],0.158
same,log10 (CFU/ml),S. pyogenes; [7],5.12 log10 (CFU/ml)
same,OD 480 nm (24 h),S. pyogenes; [8],0.140
same,OD 600 nm (24 h),S. pyogenes; [8],0.161
same,log10 (CFU/ml),S. pyogenes; [8],5.08 log10 (CFU/ml)
CC(C)=CCCC1(C)C=Cc2c(c(C)cc3c2[nH]c2ccccc23)O1 (centres unmarked) [Mahanimbine],zone of inhibition at 6 µg/mL,"S. pyogenes (ATCC 19615); ATCC19615, read-out: inhibition zone",~20 mm
same,% release,"[1]; chewing gum of Example 5, chewing time 0.0 min",0.0%
same,% release,"[1]; chewing gum of Example 5, chewing time 5.0 min",54.7%
same,% release,"[1]; chewing gum of Example 5, chewing time 10.0 min",51.5%
same,% release,"[1]; chewing gum of Example 5, chewing time 15.0 min",59.7%
same,% release,"[1]; chewing gum of Example 5, chewing time 20.0 min",54.7%
COc1cc2[nH]c3c4c(c(C)cc3c2cc1OC)OC(C)(C)C=C4 [Koenigicine],zone of inhibition at 3 µg/mL,"S. pyogenes (ATCC 19615); ATCC19615, standard at 3 µg/ml, 0.1 ml per well, M17 agar, 37°C",~20 mm
